Measured values: US20160297830A1, “NOVEL COMPOUNDS USEFUL FOR THE TREATMENT OF BACTERIAL INFECTIOUS DISEASES” (GALAPAGOS NV, priority 2013, published 2016)
≈ marks a conversion by molar mass, not a printed value. Read-outs that look alike come from different tables or passages of the source.

What was measured:
S. aureus Sa1 ATCC 13709 = assay: microbe, parasite or virus in culture; format: cell-based; settings: Staphylococcus aureus
[1] = test system: S. aureus Sa26 ATCC 25923; assay: Antibacterial activity assay (MIC), S. aureus Sa26; format: cell-based; settings: Staphylococcus aureus
[2] = test system: E. coli Ec113 efflux pump KO; assay: microbe, parasite or virus in culture; format: cell-based; settings: Escherichia coli, read-out: MIC Ec113 efflux pump KO
[3] = test system: H. influenza Hi3 ATCC 31517; assay: organism not typed; format: cell-based; settings: read-out: MIC Hi3
[4] = test system: S. aureus Sa2 clinical strain NCIMB 41953, MRSA; assay: microbe, parasite or virus in culture; format: cell-based; settings: Staphylococcus aureus, read-out: MIC Sa2
[5] = test system: H. influenza Hi106 ATCC 51907; assay: organism not typed; format: cell-based; settings: read-out: MIC Hi106
DNA III Polymerase E = DNA III Polymerase E (Escherichia coli, UniProt P10443); assay: In vitro activity against DNA III Polymerase E, E. coli; format: biochemical
Chain of DNA III Polymerase E (P10443 whole entry): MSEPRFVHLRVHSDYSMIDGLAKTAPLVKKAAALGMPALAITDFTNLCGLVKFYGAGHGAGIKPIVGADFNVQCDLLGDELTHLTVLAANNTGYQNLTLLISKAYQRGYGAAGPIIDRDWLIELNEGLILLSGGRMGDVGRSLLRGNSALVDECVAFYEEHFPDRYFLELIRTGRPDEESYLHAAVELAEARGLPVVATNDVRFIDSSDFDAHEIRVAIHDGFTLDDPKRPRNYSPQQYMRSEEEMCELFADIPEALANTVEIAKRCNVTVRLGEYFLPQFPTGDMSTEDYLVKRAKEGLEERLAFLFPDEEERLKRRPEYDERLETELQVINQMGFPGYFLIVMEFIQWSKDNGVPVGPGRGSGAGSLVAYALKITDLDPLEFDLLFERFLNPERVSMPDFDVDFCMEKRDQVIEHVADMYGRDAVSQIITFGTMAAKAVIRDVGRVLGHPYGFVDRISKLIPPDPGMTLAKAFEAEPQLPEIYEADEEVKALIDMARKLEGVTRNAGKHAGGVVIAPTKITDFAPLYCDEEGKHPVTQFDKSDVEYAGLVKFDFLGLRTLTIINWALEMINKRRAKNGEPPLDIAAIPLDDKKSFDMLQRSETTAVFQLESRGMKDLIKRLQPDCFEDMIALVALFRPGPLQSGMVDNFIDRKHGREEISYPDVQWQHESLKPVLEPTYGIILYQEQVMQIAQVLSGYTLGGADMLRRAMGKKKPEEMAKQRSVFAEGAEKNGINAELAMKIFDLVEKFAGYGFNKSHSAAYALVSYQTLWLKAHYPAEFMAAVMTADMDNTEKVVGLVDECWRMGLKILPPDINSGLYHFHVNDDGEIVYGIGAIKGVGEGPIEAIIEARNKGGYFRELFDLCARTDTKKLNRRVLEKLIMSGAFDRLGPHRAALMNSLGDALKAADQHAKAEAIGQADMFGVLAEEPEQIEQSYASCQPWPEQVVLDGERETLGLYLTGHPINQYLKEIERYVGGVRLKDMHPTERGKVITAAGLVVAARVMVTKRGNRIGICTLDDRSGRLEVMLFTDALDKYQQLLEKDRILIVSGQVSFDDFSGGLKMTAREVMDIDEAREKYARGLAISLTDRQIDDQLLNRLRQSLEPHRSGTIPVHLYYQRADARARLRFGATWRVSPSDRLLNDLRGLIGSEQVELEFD
Procedure: A radioactive filterplate assay was used to assess inhibitory activity of compounds on DNA Polymerase IIIα. Five μL of a dilution series of compound, starting from 100 μM highest concentration, 1/5 dilution, was added to the wells of a 96 well plate. Recombinant enzyme was diluted to 0.47 μg/mL in a buffer containing 20 mM Tris pH7.5, 8 mM DTT, 10 mM MgOAc, 0.05% CHAPS and 10 μL thereof was added to the compound dilutions. The reaction was started with the addition of 10 μL substrate in the same buffer, containing activated calf thymus DNA (Sigma, D4522), dATP, dGTP, dCTP, dTTP (Invitrogen) and [α-33P]-dTTP (Perkin Elmer, NEG605H001) at a concentration of 62.5 μg/mL, 50 nM and 7.5 μCi/mL respectively. The mixture was incubated at 30° C. for 120 minutes and terminated by addition of phosphoric acid. Samples were transferred to filter plates and incorporated radioactivity was measured by the Topcount. Data were converted to percent inhibition with respect to positive and negative controls. IC50 values were calculated using Graph Prism™ software.

E. coli Ec1 ATCC 25922 = assay: Antibacterial activity assay (MIC), E. coli Ec1; format: cell-based; settings: Escherichia coli
[6] = test system: H. influenza Hi10 clinical strain; assay: organism not typed; format: cell-based; settings: read-out: MIC Hi10
S. aureus Sa4 NCTC 6571 = assay: Antibacterial activity assay (MIC), S. aureus Sa4; format: cell-based; settings: Staphylococcus aureus
[7] = test system: H. influenza Hi47 clinical strain, Ampicillin Resistant; assay: organism not typed; format: cell-based; settings: read-out: MIC Hi47
[8] = test system: E. coli Ec50 efflux pump KO; assay: microbe, parasite or virus in culture; format: cell-based; settings: Escherichia coli, read-out: MIC Ec50 efflux pump KO
[9] = molecular target: DNA Polymerase IIIα (DnaE) from Staphylococcus aureus (Staphylococcus aureus, UniProt Q6GG04); assay: biochemical
Chain of DNA Polymerase IIIα (DnaE) from Staphylococcus aureus (Q6GG04 1-1022): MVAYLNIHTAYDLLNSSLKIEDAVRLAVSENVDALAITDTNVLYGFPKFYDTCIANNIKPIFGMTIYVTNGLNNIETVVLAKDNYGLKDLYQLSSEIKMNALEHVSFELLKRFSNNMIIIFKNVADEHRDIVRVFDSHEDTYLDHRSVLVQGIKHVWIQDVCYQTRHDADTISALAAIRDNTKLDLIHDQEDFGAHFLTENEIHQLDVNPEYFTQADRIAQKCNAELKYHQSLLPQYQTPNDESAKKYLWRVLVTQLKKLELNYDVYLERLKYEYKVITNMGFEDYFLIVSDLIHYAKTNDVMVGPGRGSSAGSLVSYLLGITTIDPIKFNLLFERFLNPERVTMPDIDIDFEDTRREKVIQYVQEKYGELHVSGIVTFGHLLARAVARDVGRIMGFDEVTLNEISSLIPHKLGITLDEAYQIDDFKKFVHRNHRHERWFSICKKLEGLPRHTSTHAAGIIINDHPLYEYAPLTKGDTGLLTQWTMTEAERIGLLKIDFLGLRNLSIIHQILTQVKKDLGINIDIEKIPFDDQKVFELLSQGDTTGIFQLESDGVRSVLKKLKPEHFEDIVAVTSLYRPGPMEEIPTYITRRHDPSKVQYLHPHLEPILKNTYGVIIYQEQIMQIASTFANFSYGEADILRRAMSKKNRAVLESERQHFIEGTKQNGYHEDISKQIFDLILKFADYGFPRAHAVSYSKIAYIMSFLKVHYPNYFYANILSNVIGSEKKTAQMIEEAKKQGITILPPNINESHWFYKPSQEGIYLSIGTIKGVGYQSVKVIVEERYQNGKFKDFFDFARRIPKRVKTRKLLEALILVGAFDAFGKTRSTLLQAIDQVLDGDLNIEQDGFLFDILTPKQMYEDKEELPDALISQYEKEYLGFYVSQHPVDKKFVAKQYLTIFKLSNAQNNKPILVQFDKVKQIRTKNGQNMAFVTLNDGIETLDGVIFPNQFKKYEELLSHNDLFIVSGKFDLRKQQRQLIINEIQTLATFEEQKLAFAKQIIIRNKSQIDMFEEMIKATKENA

[10] = ATCC13709, S. aureus Sa1 ATCC 13709, sensitive strain, Mueller-Hinton Broth, 37° C., read-out: MIC Sa1
[11] = ATCC25923, read-out: MIC Sa26 + 10% SH, S. aureus Sa26 + 10% SH
[12] = ATCC25923, read-out: MIC Sa26 + 50% SH, S. aureus Sa26 + 50% SH
[13] = ATCC25923, S. aureus Sa26 ATCC 25923, sensitive strain, Mueller-Hinton Broth, 37° C., read-out: MIC Sa26
[14] = ATCC25922, E. coli Ec1 ATCC 25922, sensitive strain, read-out: MIC Ec1
[15] = NCTC6571, S. aureus Sa4 NCTC 6571, sensitive strain, read-out: MIC Sa4
[16] = DNA polymerase III, E. coli, read-out: IC50 semiquantitative scoring, E. coli
[17] = DNA polymerase III, S. aureus, read-out: IC50 semiquantitative scoring, S. aureus
[18] = ATCC25923, read-out: MIC Sa26 + 10% SH
[19] = ATCC25923, read-out: MIC Sa26 + 50% SH

| Structure (SMILES) | MIC (S. aureus Sa1 ATCC 13709; [10]) [µg/mL] | MIC [1, 11] [µg/mL] | MIC [1, 12] [µg/mL] | MIC [1, 13] [µg/mL] | MIC [2] [µg/mL] | MIC [3] [µg/mL] | MIC [4] [µg/mL] | MIC [5] [µg/mL] | IC50 (DNA III Polymerase E) [µM] | MIC (E. coli Ec1 ATCC 25922; [14]) [µg/mL] | MIC [6] [µg/mL] | MIC (S. aureus Sa4 NCTC 6571; [15]) [µg/mL] | MIC [7] [µg/mL] | MIC [8] [µg/mL] | IC50 [9] [nM] | IC50 (DNA III Polymerase E; [16]) [µM] | IC50 [9, 17] [nM] | MIC (S. aureus Sa1 ATCC 13709; ATCC13709, read-out: MIC Sa1) [µg/mL] | MIC ([1]; ATCC25923, read-out: MIC Sa26) [µg/mL] | MIC [1, 18] [µg/mL] | other results |
| --- | --- | --- | --- | --- | --- | --- | --- | --- | --- | --- | --- | --- | --- | --- | --- | --- | --- | --- | --- | --- | --- |
| COC[C@@H](O)[C@H]1OC(=O)[C@H](COC)[C@H]2C=C[C@H]3[C@H]4O[C@]2(/C(C)=C/[C@H]1C)[C@@H]3[C@H](O)[C@@H](C)[C@H]4OC(=O)c1ccoc1 [Compound 7, 8-O-Furane-3′-carbonylbaleomycin] | 8 (≈ 14.6 µM) | 16 | 16 | 16 (≈ 29.3 µM) | 0.125 (≈ 0.229 µM) | > 64 | 8 (≈ 14.6 µM) | 64 (≈ 117 µM) | 0.00183 to 1.83 | > 64 | 64 (≈ 117 µM) | 8 (≈ 14.6 µM) | 64 (≈ 117 µM) | > 64 | 1.83 to 1830 | – | – | – | – | – | – |
| COC[C@@H]1[C@@H](O)[C@@H]2[C@H]3C=C[C@@H]4[C@@H](COC)C(=O)O[C@H]([C@H](O)COC)[C@H](C)/C=C(\C)[C@@]24O[C@H]3[C@@H]1OC(=O)c1cocn1 [Compound 8, 8-O-Oxazole-4′-carbonylbranimycin] | > 64 | > 64 | > 64 | > 64 | 64 (≈ 111 µM) | > 64 | > 64 | > 64 | – | > 64 | > 64 | > 64 | > 64 | > 64 | – | > 17.3 | 1730 to 17300 | – | – | – | – |
| COC[C@@H]1[C@@H](O)[C@@H]2[C@H]3C=C[C@@H]4[C@@H](COC)C(=O)O[C@H]([C@H](O)COC)[C@H](C)/C=C(\C)[C@@]24O[C@H]3[C@@H]1OC(=O)c1ccsc1 [Compound 9, 8-O-Thiophene-3′-carbonylbranimycin] | 4 (≈ 6.75 µM) | 2 | 4 | 2 (≈ 3.37 µM) | 4 (≈ 6.75 µM) | > 64 | 4 (≈ 6.75 µM) | > 64 | – | > 64 | > 64 | 2 (≈ 3.37 µM) | > 64 | > 64 | – | > 16.9 | 1.69 to 1690 | – | – | – | – |
| COC[C@@H]1[C@@H](O)[C@@H]2[C@H]3C=C[C@@H]4[C@@H](COC)C(=O)O[C@H]([C@H](O)COC)[C@H](C)/C=C(\C)[C@@]24O[C@H]3[C@@H]1OC(=O)c1cc[nH]n1 [Compound 10, 8-O-1H-Pyrazole-3′-carbonylbranimycin] | 16 (≈ 27.7 µM) | 16 | 8 | 16 (≈ 27.7 µM) | 16 (≈ 27.7 µM) | > 64 | 16 (≈ 27.7 µM) | > 64 | > 17.3 | > 64 | > 64 | 16 (≈ 27.7 µM) | > 64 | > 64 | 1.73 to 1730 | – | – | – | – | – | – |
| COC[C@@H]1[C@@H](O)[C@@H]2[C@H]3C=C[C@@H]4[C@@H](COC)C(=O)O[C@H]([C@H](O)COC)[C@H](C)/C=C(\C)[C@@]24O[C@H]3[C@@H]1OC(=O)c1ccoc1C [Compound 11, 8-O-2-Methylfurane-3′-carbonylbranimycin] | > 64 | > 64 | > 64 | > 64 | 8 (≈ 13.5 µM) | > 64 | > 64 | > 64 | > 16.9 | > 64 | > 64 | > 64 | > 64 | > 64 | 1690 to 16900 | – | – | – | – | – | – |
| COC[C@@H]1[C@@H](O)[C@@H]2[C@H]3C=C[C@@H]4[C@@H](COC)C(=O)O[C@H]([C@H](O)COC)[C@H](C)/C=C(\C)[C@@]24O[C@H]3[C@@H]1OC(=O)c1cc(C)c[nH]1 [Compound 12, 8-O-4-Methyl-1H-pyrrole-2′-carbonylbranimycin] | – | – | – | – | 2 (≈ 3.39 µM) | > 64 | 4 (≈ 6.78 µM) | 64 (≈ 109 µM) | – | – | > 64 | – | 64 (≈ 109 µM) | > 64 | 1.7 to 1700 | > 17 | – | 8 (≈ 13.6 µM) | 16 (≈ 27.1 µM) | 8 | MIC [1, 19]: 16 µg/mL; MIC (E. coli Ec1 ATCC 25922; ATCC25922, read-out: MIC Ec1): > 64 µg/mL; MIC (S. aureus Sa4 NCTC 6571; NCTC6571, read-out: MIC Sa4): 8 µg/mL (≈ 13.6 µM) |
| COC[C@@H]1[C@@H](O)[C@@H]2[C@H]3C=C[C@@H]4[C@@H](COC)C(=O)O[C@H]([C@H](O)COC)[C@H](C)/C=C(\C)[C@@]24O[C@H]3[C@@H]1OC(=O)c1ccon1 [Compound 13, 8-O-Isoxazole-3′-carbonylbranimycin] | > 64 | > 64 | > 64 | > 64 | 8 (≈ 13.8 µM) | > 64 | > 64 | > 64 | – | > 64 | > 64 | 64 (≈ 111 µM) | 64 (≈ 111 µM) | 64 (≈ 111 µM) | – | > 17.3 | 1730 to 17300 | – | – | – | – |
| COC[C@@H]1[C@@H](O)[C@@H]2[C@H]3C=C[C@@H]4[C@@H](COC)C(=O)O[C@H]([C@H](O)COC)[C@H](C)/C=C(\C)[C@@]24O[C@H]3[C@@H]1OC(=O)c1cnco1 [Compound 14, 8-O-Oxazole-5′ carbonylbranimycin] | – | – | – | – | 16 (≈ 27.7 µM) | > 64 | > 64 | > 64 | – | – | > 64 | – | > 64 | > 64 | 1730 to 17300 | > 17.3 | – | > 64 | > 64 | > 64 | MIC [1, 19]: > 64 µg/mL; MIC (E. coli Ec1 ATCC 25922; ATCC25922, read-out: MIC Ec1): > 64 µg/mL; MIC (S. aureus Sa4 NCTC 6571; NCTC6571, read-out: MIC Sa4): > 64 µg/mL |
| COC[C@H]1[C@@H](O)[C@@H]2O[C@@]34/C(C)=C/[C@@H](C)[C@@H]([C@H](O)COC)OC(=O)[C@H](COC)[C@H]3CC[C@@H]2[C@H]4[C@@H]1O [Compound 15, 4,5-Dihydro-branimycin] | – | – | – | – | 16 (≈ 33 µM) | > 64 | > 64 | > 64 | > 20.6 | – | > 64 | – | > 64 | > 64 | – | – | 2060 to 20600 | > 64 | > 64 | > 64 | MIC [1, 19]: > 64 µg/mL; MIC (E. coli Ec1 ATCC 25922; ATCC25922, read-out: MIC Ec1): > 64 µg/mL; MIC (S. aureus Sa4 NCTC 6571; NCTC6571, read-out: MIC Sa4): > 64 µg/mL |
| COC[C@@H]1[C@@H](O)[C@@H]2[C@H]3CC[C@@H]4[C@@H](COC)C(=O)O[C@H]([C@H](O)COC)[C@H](C)/C=C(\C)[C@@]24O[C@H]3[C@@H]1OC(=O)c1ccc[nH]1 [Compound 16, 4,5-Dihydro-8-O-1H-pyrrole-2′-carbonylbranimycin] | – | – | – | – | 4 (≈ 6.92 µM) | > 64 | 4 (≈ 6.92 µM) | > 64 | – | – | > 64 | – | > 64 | > 64 | 1.73 to 1730 | > 17.3 | – | 8 (≈ 13.8 µM) | 8 (≈ 13.8 µM) | 8 | MIC [1, 19]: 8 µg/mL; MIC (E. coli Ec1 ATCC 25922; ATCC25922, read-out: MIC Ec1): > 64 µg/mL; MIC (S. aureus Sa4 NCTC 6571; NCTC6571, read-out: MIC Sa4): 4 µg/mL (≈ 6.92 µM) |
| COCC[C@H]1OC(=O)[C@H](COC)[C@H]2C=C[C@H]3[C@H]4O[C@]2(/C(C)=C/[C@H]1C)[C@@H]3[C@H](O)[C@@H](COC)[C@H]4O [Compound 17, 17-Deoxybranimycin] | > 64 | > 64 | > 64 | > 64 | 8 (≈ 17.1 µM) | > 64 | > 64 | > 64 | – | > 64 | > 64 | > 64 | > 64 | > 64 | – | > 21.4 | 2.14 to 2140 | – | – | – | – |
